In brackets after ≈: the same amount, converted by molar mass.

Test [1] relates to Pseudomonas aeruginosa. Briefly: Ratio of Kcat to Km for Pseudomonas aeruginosa strain PS 297 metallo-beta-lactamase IMP18 expressed in Escherichia coli BL21(DE3) assessed as substrate hydrolysis using 100 uM nitrocefin.
For test [2], the system named is Pseudomonas aeruginosa. Briefly: Activity of Pseudomonas aeruginosa strain PS 297 metallo-beta-lactamase IMP-1 expressed in Escherichia coli BL21(DE3) assessed as substrate hydrolysis using 100 uM nitrocefin.
The test system of test [3] is Pseudomonas aeruginosa. Briefly: Activity of Pseudomonas aeruginosa strain PS 297 metallo-beta-lactamase IMP-18 expressed in Escherichia coli BL21(DE3) assessed as substrate hydrolysis using 100 uM nitrocefin.
Test [4] concerns Pseudomonas aeruginosa. Briefly: Ratio of Kcat to Km for Pseudomonas aeruginosa strain PS 297 metallo-beta-lactamase IMP-1 expressed in Escherichia coli BL21(DE3) assessed as substrate hydrolysis using 100 uM nitrocefin.
Test [5] relates to Escherichia coli. Briefly: Antimicrobial activity against Escherichia coli DH5alpha carrying Pseudomonas aeruginosa strain PS 297 IMP-18-pLBII after 18 hrs by microdilution broth method. The test is classed as functional. As to conditions: DH5[alpha]. For orientation: Dilution methods test growth across graded concentrations, often in twofold steps.
The subject of test [6] is Escherichia coli. Briefly: Antimicrobial activity against Escherichia coli DH5alpha carrying Pseudomonas aeruginosa strain PS 297 IMP-1-pLBII after 18 hrs by microdilution broth method. Type of test: functional. Particulars: DH5[alpha].
The test system of test [7] is Escherichia coli. Briefly: Antimicrobial activity against Escherichia coli DH5alpha carrying empty pBC-SK after 18 hrs by microdilution broth method. The test is classed as functional. Particulars: DH5[alpha].

`O=C(Cc1cccs1)N[C@@H]1C(=O)N2C(C(=O)O)=C(/C=C/c3ccc([N+](=O)[O-])cc3[N+](=O)[O-])CS[C@H]12`: the kcat/Km in the test with Pseudomonas aeruginosa [1] was determined as 6.1 ×10⁶ /M/s; in the test with Pseudomonas aeruginosa [4], 2.3 ×10⁶ /M/s. Also, the results for the Km in the test with Pseudomonas aeruginosa [2] and with Pseudomonas aeruginosa [3] were 27 µM and 9 µM, respectively. Moreover, the turnover number (kcat) (usually the number of substrate molecules converted per active site and unit of time at saturation) in the test on Pseudomonas aeruginosa [2] was 63 s⁻¹; in the test with Pseudomonas aeruginosa [3] it was 55 s⁻¹.

Take `C[C@@H](O)[C@H]1C(=O)N2C(C(=O)O)=C(S[C@@H]3CN[C@H](C(=O)N(C)C)C3)[C@H](C)[C@H]12` [MEROPENEM]: the results for the kcat/Km in the test on Pseudomonas aeruginosa [1] and with Pseudomonas aeruginosa [4] were 6 ×10³ /M/s and 5 ×10⁵ /M/s, respectively. Moreover, the results for the MIC with Escherichia coli [5], with Escherichia coli [6] and against Escherichia coli [7] were 0.06 µg/mL (≈ 0.156 µM), 2 µg/mL (≈ 5.22 µM) and ≤ 0.015 µg/mL, respectively. In addition, in the test on Pseudomonas aeruginosa [3], the Km (usually the concentration of substrate that gives half-maximal velocity) came out at 8.4 µM. In addition, the kcat in the test on Pseudomonas aeruginosa [3] was determined as 0.05 s⁻¹.

For the molecule `C[C@@H](O)[C@H]1C(=O)N2C(C(=O)O)=C(SCCNC=N)C[C@H]12` [IMIPENEM ANHYDROUS], the kcat/Km with Pseudomonas aeruginosa [1] worked out at 2.4 ×10⁶ /M/s; with Pseudomonas aeruginosa [4], 1.2 ×10⁶ /M/s. Moreover, the figures for the Km in the test with Pseudomonas aeruginosa [2] and with Pseudomonas aeruginosa [3] were 39 µM and 7 µM, respectively. The kcat in the test with Pseudomonas aeruginosa [2] turned out to be 46 s⁻¹; with Pseudomonas aeruginosa [3], 17 s⁻¹. Besides, the minimal inhibitory concentration (MIC) – broadly, the smallest concentration in the dilution series that meets the test's criterion for growth inhibition – with Escherichia coli [6] was 2 µg/mL (≈ 6.68 µM).

Turning to `CO[C@@]1(NC(=O)C2SC(=C(C(N)=O)C(=O)O)S2)C(=O)N2C(C(=O)O)=C(CSc3nnnn3C)CS[C@@H]21` (stereo partly specified) [CEFOTETAN], the minimal inhibitory concentration (MIC) against Escherichia coli [5] is 32 µg/mL (≈ 55.6 µM); in the test with Escherichia coli [6], > 32 µg/mL; against Escherichia coli [7], 0.25 µg/mL (≈ 0.434 µM).

For the molecule `CO/N=C(\C(=O)N[C@@H]1C(=O)N2C(C(=O)O)=C(CSc3nc(=O)c(O)nn3C)CS[C@H]12)c1csc(N)n1` [CEFTRIAXONE], the MIC was determined as 4 µg/mL (≈ 7.21 µM) in the test with Escherichia coli [5], 8 µg/mL (≈ 14.4 µM) with Escherichia coli [6] and 0.25 µg/mL (≈ 0.451 µM) in the test on Escherichia coli [7].

Regarding `CO/N=C(\C(=O)N[C@@H]1C(=O)N2C(C(=O)O)=C(COC(C)=O)CS[C@H]12)c1csc(N)n1` [CEFOTAXIME], the kcat/Km stood at 2.3 ×10⁵ /M/s with Pseudomonas aeruginosa [1] and 3.5 ×10⁵ /M/s with Pseudomonas aeruginosa [4]. In addition, the Km in the test with Pseudomonas aeruginosa [2] was determined as 4 µM; in the test with Pseudomonas aeruginosa [3], 3 µM. In addition, the kcat amounted to 1.3 s⁻¹ in the test on Pseudomonas aeruginosa [2] and 0.7 s⁻¹ in the test with Pseudomonas aeruginosa [3]. In addition, the results for the MIC in the test with Escherichia coli [5], with Escherichia coli [6] and in the test on Escherichia coli [7] were 32 µg/mL (≈ 70.3 µM), 8 µg/mL (≈ 17.6 µM) and 0.25 µg/mL (≈ 0.549 µM), respectively.

On to `CO/N=C(\C(=O)N[C@@H]1C(=O)N2C(C(=O)O)=C(COC(N)=O)CS[C@H]12)c1ccco1` [CEFUROXIME], for which the kcat/Km in the test with Pseudomonas aeruginosa [1] amounted to 1.3 ×10⁵ /M/s. Further, the figures for the MIC with Escherichia coli [5], in the test with Escherichia coli [6] and with Escherichia coli [7] were 64 µg/mL (≈ 151 µM), 128 µg/mL (≈ 302 µM) and 4 µg/mL (≈ 9.43 µM), respectively. In addition, the Km with Pseudomonas aeruginosa [3] came out at 7 µM. Moreover, the kcat in the test with Pseudomonas aeruginosa [3] came out at 0.9 s⁻¹.

Take `CC(C)(O/N=C(\C(=O)N[C@@H]1C(=O)N2C(C(=O)[O-])=C(C[n+]3ccccc3)CS[C@H]12)c1csc(N)n1)C(=O)O` [CEFTAZIDIME]: the figures for the kcat/Km in the test with Pseudomonas aeruginosa [1] and with Pseudomonas aeruginosa [4] were 7.7 ×10⁵ /M/s and 1.8 ×10⁵ /M/s, respectively. The results for the Km in the test with Pseudomonas aeruginosa [2] and in the test on Pseudomonas aeruginosa [3] were 44 µM and 1.3 µM, respectively. The figures for the kcat with Pseudomonas aeruginosa [2] and in the test with Pseudomonas aeruginosa [3] were 8 s⁻¹ and 1 s⁻¹, respectively. Besides, the MIC stood at 32 µg/mL (≈ 58.5 µM) in the test with Escherichia coli [5], 32 µg/mL (≈ 58.5 µM) in the test with Escherichia coli [6] and 0.25 µg/mL (≈ 0.457 µM) in the test on Escherichia coli [7].

Regarding `CC(=O)OCC1=C(C(=O)O)N2C(=O)[C@@H](NC(=O)Cc3cccs3)[C@H]2SC1` [CEPHALOTHIN], the values for the kcat/Km in the test on Pseudomonas aeruginosa [1] and with Pseudomonas aeruginosa [4] were 4 ×10⁶ /M/s and 2.4 ×10⁶ /M/s, respectively. For the same molecule, the Km is 21 µM in the test with Pseudomonas aeruginosa [2] and 0.1 µM in the test with Pseudomonas aeruginosa [3]. Also, the values for the MIC in the test on Escherichia coli [5], in the test on Escherichia coli [6] and with Escherichia coli [7] were 32 µg/mL (≈ 80.7 µM), 256 µg/mL (≈ 646 µM) and 4 µg/mL (≈ 10.1 µM), respectively. In the test on Pseudomonas aeruginosa [3], the kcat is 0.4 s⁻¹.

As for `CC1(C)S[C@@H]2[C@H](NC(=O)[C@H](C(=O)O)c3ccsc3)C(=O)N2[C@H]1C(=O)O` [TICARCILLIN], the figures for the kcat/Km in the test on Pseudomonas aeruginosa [1] and in the test with Pseudomonas aeruginosa [4] were 1.5 ×10⁵ /M/s and 1.5 ×10³ /M/s, respectively. The results for the Km with Pseudomonas aeruginosa [2] and with Pseudomonas aeruginosa [3] were 740 µM and 180 µM, respectively. Moreover, the kcat is 1.1 s⁻¹ in the test on Pseudomonas aeruginosa [2] and 30 s⁻¹ in the test with Pseudomonas aeruginosa [3]. Also, the MIC with Escherichia coli [5] is 256 µg/mL (≈ 666 µM); against Escherichia coli [6], 512 µg/mL (≈ 1330 µM); in the test with Escherichia coli [7] it was 8 µg/mL (≈ 20.8 µM).

In the case of `CC1(C)S[C@@H]2[C@H](NC(=O)[C@H](N)c3ccccc3)C(=O)N2[C@H]1C(=O)O` [AMPICILLIN], the results for the kcat/Km in the test with Pseudomonas aeruginosa [1] and with Pseudomonas aeruginosa [4] were 6.3 ×10⁵ /M/s and 4.8 ×10⁶ /M/s, respectively. Besides, the Km with Pseudomonas aeruginosa [2] was 200 µM; in the test with Pseudomonas aeruginosa [3], 103 µM. Besides, the kcat with Pseudomonas aeruginosa [2] was found to be 950 s⁻¹; in the test on Pseudomonas aeruginosa [3] it was 65 s⁻¹. Also, the MIC against Escherichia coli [5] stood at 64 µg/mL (≈ 183 µM); in the test on Escherichia coli [6] it was 256 µg/mL (≈ 733 µM); in the test on Escherichia coli [7], 4 µg/mL (≈ 11.4 µM).

Turning to `CCN1CCN(C(=O)N[C@@H](C(=O)N[C@@H]2C(=O)N3[C@@H]2SC(C)(C)[C@@H]3C(=O)O)c2ccccc2)C(=O)C1=O` [PIPERACILLIN], the kcat/Km was 5.1 ×10⁴ /M/s in the test on Pseudomonas aeruginosa [1] and 7.2 ×10⁵ /M/s with Pseudomonas aeruginosa [4]. Further, the MIC in the test with Escherichia coli [5], against Escherichia coli [6] and with Escherichia coli [7] was 1 µg/mL (≈ 1.93 µM) each time. Also, the Michaelis-Menten constant (Km) in the test with Pseudomonas aeruginosa [3] is > 200 µM. Also, the kcat in the test with Pseudomonas aeruginosa [3] was > 10 s⁻¹.

As for `CO/N=C(\C(=O)N[C@@H]1C(=O)N2C(C(=O)[O-])=C(C[N+]3(C)CCCC3)CS[C@H]12)c1csc(N)n1`, the figures for the kcat/Km in the test on Pseudomonas aeruginosa [1] and in the test on Pseudomonas aeruginosa [4] were 4.4 ×10⁵ /M/s and 6.6 ×10⁵ /M/s, respectively. For the same molecule, the Km in the test with Pseudomonas aeruginosa [2] turned out to be 11 µM; in the test with Pseudomonas aeruginosa [3], 0.8 µM. The kcat amounted to 7 s⁻¹ in the test on Pseudomonas aeruginosa [2] and 0.35 s⁻¹ in the test on Pseudomonas aeruginosa [3]. Further, the MIC came out at 4 µg/mL (≈ 8.32 µM) in the test with Escherichia coli [6] and 0.25 µg/mL (≈ 0.52 µM) against Escherichia coli [7].

Consider `CO[C@@]1(NC(=O)C(C(=O)O)c2ccsc2)C(=O)N2[C@@H](C(=O)O)C(C)(C)S[C@@H]21` (stereo partly specified) [TEMOCILLIN], for which the kcat/Km is 7.5 ×10² /M/s with Pseudomonas aeruginosa [1] and < 100 M⁻¹ s⁻¹ in the test on Pseudomonas aeruginosa [4]. Moreover, the Km is > 2000 µM in the test with Pseudomonas aeruginosa [2] and > 1000 µM in the test on Pseudomonas aeruginosa [3]. The figures for the minimal inhibitory concentration (MIC) in the test on Escherichia coli [5], with Escherichia coli [6] and in the test on Escherichia coli [7] were 16 µg/mL (≈ 38.6 µM), 32 µg/mL (≈ 77.2 µM) and 16 µg/mL (≈ 38.6 µM), respectively. In the test with Pseudomonas aeruginosa [3], the catalytic constant (kcat) is > 0.75 s⁻¹.

For `C[C@@H](O)[C@H]1C(=O)N2C(C(=O)O)=C(S[C@@H]3CN[C@H](C(=O)Nc4cccc(C(=O)O)c4)C3)[C@H](C)[C@H]12`, the kcat/Km in the test with Pseudomonas aeruginosa [1] came out at 1.2 ×10⁴ /M/s; with Pseudomonas aeruginosa [4], 7.6 ×10⁵ /M/s. Moreover, the Km with Pseudomonas aeruginosa [2] was 21 µM; in the test with Pseudomonas aeruginosa [3], 2.6 µM. For the same molecule, the results for the kcat in the test with Pseudomonas aeruginosa [2] and in the test on Pseudomonas aeruginosa [3] were 16 s⁻¹ and 0.03 s⁻¹, respectively. Also, the MIC in the test with Escherichia coli [5] was 0.12 µg/mL (≈ 0.252 µM); with Escherichia coli [6] it was 2 µg/mL (≈ 4.21 µM); against Escherichia coli [7], ≤ 0.015 µg/mL.

On to `C[C@H]1[C@H](NC(=O)/C(=N\OC(C)(C)C(=O)O)c2csc(N)n2)C(=O)N1S(=O)(=O)O` [AZTREONAM], for which, in the test on Pseudomonas aeruginosa [2], the Km was > 1000 µM and the kcat is < 0.01 s⁻¹. In the test with Pseudomonas aeruginosa [3], the Km was > 1000 µM and the kcat was < 0.01 s⁻¹.

With `CC1(C)S[C@@H]2[C@H](NC(=O)Cc3ccccc3)C(=O)N2[C@H]1C(=O)O`, the kcat/Km in the test on Pseudomonas aeruginosa [1] and in the test on Pseudomonas aeruginosa [4] was 6.2 ×10⁵ /M/s throughout. For the same molecule, the Km with Pseudomonas aeruginosa [2] worked out at 520 µM; in the test on Pseudomonas aeruginosa [3], 90 µM. Also, the kcat in the test on Pseudomonas aeruginosa [2] came to 320 s⁻¹; with Pseudomonas aeruginosa [3] it was 54 s⁻¹.

Consider `CO[C@@]1(NC(=O)Cc2cccs2)C(=O)N2C(C(=O)O)=C(COC(N)=O)CS[C@@H]21` [CEFOXITIN], for which the MIC against Escherichia coli [5] is 256 µg/mL (≈ 599 µM); with Escherichia coli [6], > 256 µg/mL; against Escherichia coli [7], 4 µg/mL (≈ 9.36 µM).

The values above are taken from ChEMBL document CHEMBL1687833, “Genetic context and biochemical characterization of the IMP-18 metallo-beta-lactamase identified in a Pseudomonas aeruginosa isolate from the United States” (2011).
